In PubChem BioAssay (NCI):
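48-hour exposure; five concentrations; linearly interpolated endpoints. At the GI50, growth is halved. TGI is the concentration that stops growth completely.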

What was measured:
Test in all cases: inhibition of tumour cell growth, NCI panel, 48 h
SR leukemia = system: SR leukemia
IGROV1 ovarian = system: IGROV1 ovarian
UACC-62 melanoma = system: UACC-62 melanoma
SK-MEL-2 melanoma = system: SK-MEL-2 melanoma
PC-3 prostate = system: PC-3 prostate
HS 578T breast = system: HS 578T breast
NCI-H522 lung = system: NCI-H522 lung
ACHN renal = system: ACHN renal
NCI-H226 lung = system: NCI-H226 lung
SK-MEL-5 melanoma = system: SK-MEL-5 melanoma

Row | SMILES | GI50 (SR leukemia) | GI50 (IGROV1 ovarian) | TGI (IGROV1 ovarian) | GI50 (UACC-62 melanoma) | TGI (UACC-62 melanoma) | GI50 (SK-MEL-2 melanoma) | TGI (SK-MEL-2 melanoma) | GI50 (PC-3 prostate) | TGI (PC-3 prostate) | GI50 (HS 578T breast) | TGI (HS 578T breast) | GI50 (NCI-H522 lung) | TGI (NCI-H522 lung) | GI50 (ACHN renal) | TGI (ACHN renal) | GI50 (NCI-H226 lung) | TGI (NCI-H226 lung) | GI50 (SK-MEL-5 melanoma) | TGI (SK-MEL-5 melanoma) | TGI (SR leukemia)
1 | O=C(Nc1ccc(Br)c(Cl)c1)c1cc(F)ccc1O | 547 nM | 682 nM | > 50000 nM | 242 nM | 2090 nM | 558 nM | 2080 nM | 1250 nM | > 14800 nM | 719 nM | > 15500 nM | 238 nM | 2930 nM | 610 nM | > 14400 nM | 651 nM | 2690 nM | 358 nM | 1050 nM | 
2 | CC/C(=C(\CC)c1ccc(OCCN(CC)CC)cc1)c1ccc(OCCN(CC)CC)cc1 | 1380 nM | 3300 nM | 22100 nM | 1920 nM | 4290 nM | 1900 nM | 7580 nM | 3250 nM | 19500 nM | 1740 nM | 7090 nM | 1830 nM | 4670 nM | 3990 nM | 18700 nM | 3870 nM | 13700 nM | 1480 nM | 2860 nM | 6550 nM
3 | ON(CCc1ccccn1)Cc1ccccc1 |  |  | > 100000 nM |  | > 100000 nM |  | > 100000 nM |  | > 100000 nM |  | > 100000 nM |  | > 100000 nM |  | > 100000 nM |  | > 100000 nM |  | > 100000 nM | > 100000 nM
